Molecules are shown by their SMILES. “Also recorded” adds a separate entry of the source.

One experiment deals with involucrin (IVL). Put plainly: 3D micro-epidermis model (EpiScreen): involucrin immunostaining. It is filed as cell-based, human. As to the method: To assess the effects of such therapy molecules on the epidermis, keratinocytes were grown in the presence of kinase inhibitors during 3 days with high calcium concentration to induce keratinocyte differentiation and generate a 3D-stratified differentiated epidermis. Drug impact on the epidermis development was assessed via different keratinocyte markers including: • Ki-67, an universally expressed protein among proliferating cells and absent in the quiescent cells; • Filaggrin, a filament-associated protein that binds to keratin fibers and is a marker of terminal differentiation; • Desmoglein-1, a component of desmosomes and differentiation marker expressed in all epidermal layer above the basal layer; and • Involucrin, an early differentiation marker expressed in the spinous and granular layers and a protein precursor of the epidermal cornified envelope.
Human epidermal keratinocytes cells (HPEKs) from a juvenile donor (CellnTec, Switzerland) are cultured in flasks in proliferation medium. Keratinocytes are seeded at passage 6 into EpiScreen™ (Abzena, Cambridge, UK) plates containing collagen 1 coated disc micropatterns (CYTOO, Grenoble, France). Four hours later, unattached cells are washed off and a high calcium medium is added to induce keratinocytes differentiation. The day after, keratinocytes are treated with screening compounds, and Trichostatin A is added at 0.3 μM as an internal positive control. After three days of treatment, micro-epidermises are fixed with a formalin solution 10% for 30 minutes, then permeabilized with 0.1% Triton. Several immunostainings are performed: actin (Acti-Stain 555, PHDH1, Cytoskeleton), nuclei (Hoechst, H3570, Invitrogen), and one biomarker of interest per well either anti-involucrin (HPA055211, Sigma), anti-filaggrin (HPA030189, Sigma) or anti-desmoglein-1 (HPA022128, Sigma). Antibodies are added overnight at 4° C. before staining with secondary antibody, anti-rabbit 488 (711-545-152, Jackson) for 2 hours at room temperature.
Images of each well are acquired with the Operetta HCS platform (Perkin Elmer, Waltham, MA, USA) using a ×10 objective in confocal mode in eight z-planes from 2 μm to 44 μm in steps of 6 μm in each of the 3 channels: actin, nuclei, and one biomarker of interest. The first step of the image analysis consists in detecting micro-epidermis structures on the first z-plane by segmenting the actin staining. Micro-epidermis structures are validated based on several area and roundness min and max criteria. Then, the area of each biomarker staining is measured inside the valid micro-epidermis masks through each z-plane. For all homogeneous biomarker staining, their intensity through the different planes is measured.
The actin network of each micro-epidermis is analyzed in each z-plane in order to determine the average 3D structure edges. The biomarker intensity is measured in each z-plane for each structure, and then averaged with the other results generated in the same well. Based on the data generated in the two previous steps, an average 3D reconstruction image is generated. It consists of a meshwork that delimits the structure edges, and a color scaled volume that corresponds to the biomarkers distribution and expression.
The effect of 8 oncology molecules, selected from first generation EGFRi and pan-kinase inhibitors which mostly target VEGFR and second and third generation therapies targeting main mutations relating to first generation treatment resistance, were assessed in vitro using a 3D micro-epidermis model. […] The drug impact was assessed by analysis of tissue size and keratinocyte proliferation using Ki-67 staining and keratinocyte differentiation using filaggrin, desmoglein-1 and involucrin staining.
Size of the epidermis and the expression of the protein junction desmoglein-1 (DSG1), involucrin (IVL) and filaggrin (FLG) was assessed by immunostaining and compared to untreated control. […]

Experiment [1] relates to caspase-3 activity in keratinocytes. The experiment is described as follows: Caspase-3 fluorometric assay (cell apoptosis). It is filed as cell-based, human. The following applies: 2.59 nM and 25.89 nM, 24 h (FIG. 5b). The source says:
The kit (biotium, Fremont, CA, USA) provides a homogenous assay system for fast and highly sensitive detection of caspase-3 activity by fluorescence in enzymatic reaction or mammalian cells. The fluorogenic substrate (Ac-DEVD) 2-R110 contains two DEVD (Asp-Glu-Val-Asp) tetrapeptides and is completely hydrolyzed by the enzyme in two successive steps. Cleavage of the first DEVD peptide results in the monopeptide Ac-DEVD-R110 intermediate, which has absorption and emission wavelengths similar to those of R110 (Ex/Em=496/520 nm) but has only about 10% of the fluorescence of the latter. Hydrolysis of the second DEVD peptide releases the dye R110, leading to a substantial fluorescence increase. Keratinocytes were plated at 15,000 cells per well in 100 μl of medium in a 96-well black microplate. They were allowed to attach and grow overnight in a 37° C., 5% CO2 incubator. They were then treated for 20 h with a 1:2 dilution series of staurosporine, a caspase 3 inducer. Imaging was performed on Perkin Elmer EnVision 2103 Multilabel Reader using an excitation wavelength of 490 nm and emission wavelength of 535 nm. Cells were incubated at room temperature for 15 min, protected from light. Results were obtained with 6 donors of keratinocytes in 2 experiments

`CN(C)C/C=C/C(=O)Nc1cc2c(Nc3ccc(F)c(Cl)c3)ncnc2cc1O[C@H]1CCOC1` [Afatinib]: the “IVL 30 nM” value with involucrin (IVL) (30 nM, supplementary data) is 12%. This compound returned an activation at 0.1 µM in the experiment with involucrin (IVL) (Homo sapiens, 72 h, 100 nM, supplementary data, two runs, Tox = toxic) of 16%. The compound also returned an activation at 1 µM with involucrin (IVL) (Homo sapiens, 72 h, 1 μM, supplementary data, two runs, Tox = toxic) of 27%. Besides, the IVL expression entry in the experiment on involucrin (IVL) (Table 1 summary) is “Increased”. For the same compound, the “involucrin expression” value with involucrin (IVL) (concentration (afatinib 3, 10, 30 nM; pan-kinase inhibitors 100 nM)) was “significantly increased; also recorded: increased in a dose-dependent manner”. Moreover, the cell apoptosis result in experiment [1] is reported as “does not induce apoptosis; also recorded: did not show any effect; also recorded: not affected”.
